Tests used:
[1] = Induction of anti-CD3/CD28 antibodies-stimulated human T cell activation at 1 uM assessed fold increase in IL-2 secretion measured by ELISA assay; type: functional, T cell line
[2] = Induction of anti-CD3/CD28 antibodies-stimulated human T cell activation at 0.3 uM assessed fold increase in IL-2 secretion measured by ELISA assay; type: functional, T cell line
[3] = target: E3 ubiquitin-protein ligase CBL-B (Homo sapiens, UniProt Q13191); test: Inhibition of N-terminal Avi-tagged human CBL-B (36 to 427 residues) incubated with 60 nM Src kinase for 1.5 hrs followed by incubation with fluorescently labeled UbcH5B-Ub for 1 hr and measured by TR-FRET assay; type: single protein
Chain of E3 ubiquitin-protein ligase CBL-B (Q13191 whole entry, the tested form may be a part): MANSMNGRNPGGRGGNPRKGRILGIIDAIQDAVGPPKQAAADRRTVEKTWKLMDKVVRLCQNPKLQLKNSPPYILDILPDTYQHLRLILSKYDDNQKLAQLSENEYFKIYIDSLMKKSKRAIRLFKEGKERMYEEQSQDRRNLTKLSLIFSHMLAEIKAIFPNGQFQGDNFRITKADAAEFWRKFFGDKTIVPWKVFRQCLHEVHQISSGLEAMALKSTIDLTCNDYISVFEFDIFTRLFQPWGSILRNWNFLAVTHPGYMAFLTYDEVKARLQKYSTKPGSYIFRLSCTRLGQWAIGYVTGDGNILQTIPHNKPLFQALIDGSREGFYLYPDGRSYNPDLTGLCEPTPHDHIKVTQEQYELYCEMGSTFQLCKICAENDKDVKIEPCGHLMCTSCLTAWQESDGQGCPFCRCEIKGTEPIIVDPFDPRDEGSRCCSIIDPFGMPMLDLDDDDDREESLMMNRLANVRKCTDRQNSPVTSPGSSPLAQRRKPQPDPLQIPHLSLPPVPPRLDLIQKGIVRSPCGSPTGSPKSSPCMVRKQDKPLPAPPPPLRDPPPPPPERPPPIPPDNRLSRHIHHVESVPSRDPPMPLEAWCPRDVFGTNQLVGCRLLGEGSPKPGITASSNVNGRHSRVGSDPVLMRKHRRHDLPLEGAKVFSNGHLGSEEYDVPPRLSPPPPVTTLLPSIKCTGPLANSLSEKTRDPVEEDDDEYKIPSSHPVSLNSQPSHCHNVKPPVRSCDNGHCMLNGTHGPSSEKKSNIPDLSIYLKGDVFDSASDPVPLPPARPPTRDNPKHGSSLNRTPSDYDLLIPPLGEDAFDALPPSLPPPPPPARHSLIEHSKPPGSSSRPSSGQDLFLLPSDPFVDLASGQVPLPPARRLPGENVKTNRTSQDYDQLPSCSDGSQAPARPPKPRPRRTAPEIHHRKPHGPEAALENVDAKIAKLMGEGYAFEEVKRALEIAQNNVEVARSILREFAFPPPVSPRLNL

[4] = Induction of anti-CD3/CD28 antibodies-stimulated human T cell activation at 0.3 uM assessed fold increase in CD25 expression measured by ELISA assay; type: functional, T cell line
[5] = Induction of anti-CD3/CD28 antibodies-stimulated human T cell activation at 1 uM assessed fold increase in CD25 expression measured by ELISA assay; type: functional, T cell line
[6] = Induction of anti-CD3 antibodies-stimulated human T cell activation at 1 uM assessed fold increase in IL-2 secretion measured by ELISA assay; type: functional, T cell line; further: reference of the scale not given here
[7] = Induction of anti-CD3 antibodies-stimulated human T cell activation at 1 uM assessed fold increase in CD25 expression measured by ELISA assay; type: functional, T cell line; further: reference of the scale not given here

| Structure (SMILES) | fold change (FC) [1] | fold change (FC) [2] | IC50 [3] | fold change (FC) [4] | fold change (FC) [5] | fold change (FC) [6] | fold change (FC) [7] |
| --- | --- | --- | --- | --- | --- | --- | --- |
| Cc1nc2c(o1)CCN(Cc1cc3c(c(C(F)(F)F)c1)CN(c1cccc(C4(Cc5nncn5C)COC4)c1)C3=O)C2 | >=7.5 | 5 | < 100 nM | 1.01 | 1.31 | >=0.201 | >=1.001 |
| Cn1cnnc1CC1(c2cccc(N3Cc4c(cc(N5CCNC6(CC6)C5)cc4C(F)(F)F)C3=O)c2)COC1 | >=7.5 | >=7.5 | < 100 nM | 1.31 | 1.31 | 0.101 | >=1.001 |
| Cc1cc(C(=O)Nc2cccc(C3(Cc4nncn4C)CCC3)c2)nc(C2CC2)n1 | >=7.5 | >=7.5 | < 100 nM | 1.31 | 1.31 | 0.051 | >=1.001 |
| Cn1cnnc1CC1(c2cccc(N3Cc4c(cc(C(F)(F)CO)cc4C(F)(F)F)C3=O)c2)COC1 | 1.01 | 1.01 | < 100 nM | 1.01 | 1.01 | 0.101 | 0.801 |
| CC(c1cc2c(c(C3CC3)n1)CN(c1cccc(C3(Cc4nncn4C)COC3)c1)C2=O)N1CCC2(CC2)C1 (stereo unspecified) | 5 | 2.51 | < 100 nM | 1.01 | 1.01 | 0.051 | 0.801 |
| Cc1cc(C(=O)Nc2cccc(C3([C@@H](F)c4nncn4C)COC3)c2)nc(C2CC2)n1 | >=7.5 | 2.51 | < 100 nM | 1.01 | 1.31 | >=0.201 | >=1.001 |
| CC(c1cc2c(c(C3CC3)n1)CN(c1cccc(C3(Cc4nncn4C)COC3)c1)C2=O)N1CCCCC1 (stereo unspecified) | >=7.5 | 5 | < 100 nM | >=1.76 | >=1.76 | >=0.201 | 0.601 |
| C[C@H](c1cc2c(c(C(F)(F)F)c1)CN(c1cccc(C3(Cc4nncn4C)COC3)c1)C2=O)N1CC2CC2C1 (stereo partly specified) | >=7.5 | >=7.5 | < 100 nM | 1.31 | 1.31 | >=0.201 | >=1.001 |
| Cn1cnnc1CC1(c2cccc(N3Cc4c(cc(CN5CC6C(C5)C6(F)F)cc4C(F)(F)F)C3=O)c2)COC1 (stereo unspecified) | >=7.5 | 5 | < 100 nM | 1.31 | 1.31 | >=0.201 | >=1.001 |
| Cn1cnnc1CC1(c2cccc(N3Cc4c(cc(OC5CNC5)cc4C(F)(F)F)C3=O)c2)COC1 | 1.01 | 1.01 | < 100 nM | 1.01 | 1.01 | 0.051 | 0.801 |
| CN1CC2CC(C1)N2c1cc2c(c(C(F)(F)F)c1)CN(c1cccc([C@@](C)(F)C(F)(F)c3nncn3C)c1)C2=O | 2.51 | 1.01 | < 100 nM | 1.01 | 1.01 | 0.051 | 0.801 |
| Cc1conc1CC1(c2cccc(NC(=O)c3cc(CN4CC[C@H](O)C4)nc(C4CC4)n3)c2)COC1 | >=7.5 | >=7.5 | < 100 nM | 1.31 | 1.31 | >=0.201 | >=1.001 |
| C[C@H](c1cc2c(c(C(F)(F)F)c1)CN(c1cccc(C3([C@H](F)c4nncn4C)COC3)c1)C2=O)N1CCC2(CC2)C1 (single isomer, unassigned) | >=7.5 | >=7.5 | < 100 nM | >=1.76 | >=1.76 | >=0.201 | >=1.001 |
| CO[C@@H]1CCN(Cc2cc3c(c(C(F)(F)F)c2)CN(c2cccc(C4(Cc5nncn5C)COC4)c2)C3=O)C[C@@H]1F (relative stereo) | >=7.5 | >=7.5 | < 100 nM | 1.31 | 1.31 | >=0.201 | >=1.001 |
| Cn1cnnc1CC1(c2cccc(N3Cc4c(cc(CN5[C@@H]6CC[C@H]5C[C@H](F)C6)cc4C(F)(F)F)C3=O)c2)COC1 | >=7.5 | 5 | < 100 nM | >=1.76 | >=1.76 | >=0.201 | >=1.001 |
| CN1CC2CC1CN2c1cc2c(c(C(F)(F)F)c1)CN(c1cccc([C@@](C)(F)C(F)(F)c3nncn3C)c1)C2=O (single isomer, unassigned; 563) | 2.51 | 1.01 | < 100 nM | 1.01 | 1.31 | 0.051 | 0.801 |
| Cn1cnnc1CC1(c2cccc(N3Cc4c(cc(C(O)c5ccccc5)cc4C(F)(F)F)C3=O)c2)COC1 (stereo unspecified) | >=7.5 | 5 | < 100 nM | 1.31 | 1.31 | >=0.201 | >=1.001 |
| C[C@@H](c1cc2c(c(C(F)(F)F)c1)CN(c1cccc(C3(Cc4nncn4C)COC3)c1)C2=O)N1CC(F)C1 | >=7.5 | 5 | < 100 nM | 1.31 | 1.51 | 0.151 | >=1.001 |
| COC1CCCN(Cc2cc3c(c(C(F)(F)F)c2)CN(c2cccc(C4(Cc5nncn5C)COC4)c2)C3=O)C1 (stereo unspecified) | >=7.5 | >=7.5 | < 100 nM | 1.31 | 1.51 | >=0.201 | >=1.001 |
| Cn1cnnc1C[C@@]1(c2cccc(N3Cc4c(cc(CN5CCC6(CC6)C5)cc4C(F)(F)F)C3=O)c2)CCOC1 | >=7.5 | 2.51 | < 100 nM | 1.01 | 1.01 | 0.101 | 0.801 |
| Cn1cnnc1CC1(c2cccc(N3Cc4c(cc(N5CCOCC5)cc4C(F)(F)F)C3=O)c2)COC1 | >=7.5 | 5 | < 100 nM | 1.31 | 1.51 | 0.101 | >=1.001 |
| C[C@@H](c1cc2c(c(C(F)(F)F)c1)CN(c1cccc(C3(Cc4nncn4C)COC3)c1)C2=O)N1CCC2(CC1)CC2 | >=7.5 | >=7.5 | < 100 nM | 1.01 | 1.01 | >=0.201 | >=1.001 |
| Cn1cnnc1CC1(c2cccc(N3Cc4c(cc(CN5CC[C@H](CO)C(F)(F)C5)cc4C(F)(F)F)C3=O)c2)COC1 | >=7.5 | >=7.5 | < 100 nM | 1.31 | 1.31 | 0.151 | >=1.001 |
| Cn1cnnc1CC1(c2cccc(N3Cc4c(cc(N5CCN6CCC[C@@H]6C5)cc4C(F)(F)F)C3=O)c2)COC1 | >=7.5 | >=7.5 | < 100 nM | >=1.76 | >=1.76 | >=0.201 | >=1.001 |
| COC1CCN(Cc2cc3c(c(C(F)(F)F)c2)CN(c2cccc(C4(Cc5nncn5C)COC4)c2)C3=O)CC1 | >=7.5 | >=7.5 | < 100 nM | 1.31 | 1.51 | >=0.201 | >=1.001 |
| Cc1cc(C(=O)Nc2cccc(C3(Cc4nocc4C)COC3)c2)nc(C2CC2)n1 | >=7.5 | >=7.5 | < 100 nM | 1.31 | 1.31 | >=0.201 | >=1.001 |
| CC(c1cc(C(=O)Nc2cccc(C3(Cc4nncn4C)COC3)c2)nc(C2CC2)n1)N1CCC2(CC2)C1 (single isomer, unassigned; 592a) | >=7.5 | 5 | < 100 nM | 1.01 | 1.01 | >=0.201 | >=1.001 |
| Cc1cc(C(=O)Nc2cccc(C3(C(F)(F)c4nncn4C)CC3)c2)nc(C2CC2)n1 | 2.51 | 1.01 | < 100 nM | 1.01 | 1.01 | 0.101 | 0.601 |
